Reference: ChEMBL document CHEMBL1201862, “PubChem BioAssay data set” (2004)
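Results reflect a 48-hour exposure of cells in 96-well plates to compound at five concentrations. GI50 is the concentration that inhibits growth by half.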 Active and inactive are the calls of the source. No stated cut-off is given here; in the data, active = GI50 up to about 1.1 µM and inactive = higher.

Key:
Test in all cases: NCI anticancer screen, dose series, 48 h
BT-549 = tested on: BT-549
CCRF-CEM = tested on: CCRF-CEM
COLO 205 = tested on: COLO 205
K562 = tested on: K562
MDA-N = tested on: MDA-N
MOLT-4 = tested on: MOLT-4
NCI-H460 = tested on: NCI-H460
NCI-H522 = tested on: NCI-H522
RPMI-8226 = tested on: RPMI-8226
RXF 393 = tested on: RXF 393
SF-539 = tested on: SF-539
SK-MEL-28 = tested on: SK-MEL-28
SK-OV-3 = tested on: SK-OV-3
TK-10 = tested on: TK-10
U-251 = tested on: U-251
UACC-62 = tested on: UACC-62
UO-31 = tested on: UO-31
HOP-92 = tested on: HOP-92
Hs-578T = tested on: Hs-578T
LOX IMVI = tested on: LOX IMVI

| Structure (SMILES) | GI50 (BT-549) | GI50 (CCRF-CEM) | GI50 (COLO 205) | GI50 (K562) | GI50 (MDA-N) | GI50 (MOLT-4) | GI50 (NCI-H460) | GI50 (NCI-H522) | GI50 (RPMI-8226) | GI50 (RXF 393) | GI50 (SF-539) | GI50 (SK-MEL-28) | GI50 (SK-OV-3) | GI50 (TK-10) | GI50 (U-251) | GI50 (UACC-62) | GI50 (UO-31) | GI50 (HOP-92) | GI50 (Hs-578T) | GI50 (LOX IMVI) |
| --- | --- | --- | --- | --- | --- | --- | --- | --- | --- | --- | --- | --- | --- | --- | --- | --- | --- | --- | --- | --- |
| CN1N=C(c2ccccc2)c2cc(Cl)ccc2N=C1N/N=C/c1ccc(N(C)C)cc1 | > 100 µM (inactive) | > 100 µM (inactive) | > 100 µM (inactive) | 64.3 µM (inactive) | > 100 µM (inactive) | 62.7 µM (inactive) | > 100 µM (inactive) | > 100 µM (inactive) | 70.5 µM (inactive) | > 100 µM (inactive) | > 100 µM (inactive) | > 100 µM (inactive) | > 100 µM (inactive) | > 100 µM (inactive) | > 100 µM (inactive) | > 100 µM (inactive) | > 100 µM (inactive) | – | – | – |
| CCCCC1C=Cn2c(=O)oc3c(OC(C)C)c(C)c(O)c1c32 (centres undefined) | 2.17 µM (inactive) | 1.68 µM (inactive) | 3.01 µM (inactive) | 0.91 µM (active) | 2.37 µM (inactive) | 0.824 µM (active) | 0.652 µM (active) | 1.24 µM (inactive) | 1.42 µM (inactive) | – | 2.49 µM (inactive) | 1.19 µM (inactive) | 3.14 µM (inactive) | 5.52 µM (inactive) | 1.14 µM (inactive) | 0.929 µM (active) | 0.71 µM (active) | 3.05 µM (inactive) | 0.684 µM (active) | 0.566 µM (active) |
| COC(=O)[C@H](CNC(=O)/C=C/c1ccc(OC(C)=O)c(OC(C)=O)c1)NC(=O)/C=C/c1ccc(OC(C)=O)c(OC(C)=O)c1 | > 100 µM (inactive) | 39.3 µM (inactive) | > 100 µM (inactive) | > 100 µM (inactive) | > 100 µM (inactive) | > 100 µM (inactive) | > 100 µM (inactive) | – | > 100 µM (inactive) | > 100 µM (inactive) | > 100 µM (inactive) | > 100 µM (inactive) | > 100 µM (inactive) | – | > 100 µM (inactive) | > 100 µM (inactive) | – | > 100 µM (inactive) | > 100 µM (inactive) | > 100 µM (inactive) |
| C=CCCC1(CCP(=O)(c2ccccc2)c2ccccc2)OCCO1 | > 100 µM (inactive) | > 100 µM (inactive) | > 100 µM (inactive) | > 100 µM (inactive) | > 100 µM (inactive) | > 100 µM (inactive) | > 100 µM (inactive) | 64.3 µM (inactive) | > 100 µM (inactive) | > 100 µM (inactive) | > 100 µM (inactive) | > 100 µM (inactive) | – | > 100 µM (inactive) | > 100 µM (inactive) | > 100 µM (inactive) | > 100 µM (inactive) | – | > 100 µM (inactive) | > 100 µM (inactive) |
| Clc1ccc(-c2ccc(-c3nnc(COc4ccc(OCc5nnc(-c6ccc(-c7ccc(Cl)cc7Cl)o6)o5)c(Cl)c4)o3)o2)c(Cl)c1 | > 100 µM (inactive) | 32.4 µM (inactive) | > 100 µM (inactive) | > 100 µM (inactive) | > 100 µM (inactive) | 28.4 µM (inactive) | > 100 µM (inactive) | > 100 µM (inactive) | > 100 µM (inactive) | 16.2 µM (inactive) | – | > 100 µM (inactive) | – | 84.5 µM (inactive) | 40 µM (inactive) | > 100 µM (inactive) | > 100 µM (inactive) | – | 83 µM (inactive) | > 100 µM (inactive) |
| CC12CC(c3ccccc3O1)C(C(=O)Nc1ccc(Cl)cc1Cl)C(=O)N2 (centres undefined) | 89.3 µM (inactive) | 15 µM (inactive) | 64.6 µM (inactive) | 38.3 µM (inactive) | > 100 µM (inactive) | 19.1 µM (inactive) | 31.6 µM (inactive) | 56.8 µM (inactive) | 44 µM (inactive) | – | 45.4 µM (inactive) | 72.8 µM (inactive) | 73.8 µM (inactive) | – | 22.2 µM (inactive) | > 100 µM (inactive) | 19.2 µM (inactive) | – | 25.2 µM (inactive) | 22.5 µM (inactive) |
| O=S1(=O)OCCCOS(=O)(=O)C1(Br)Br | > 100 µM (inactive) | > 100 µM (inactive) | > 100 µM (inactive) | – | > 100 µM (inactive) | > 100 µM (inactive) | – | > 100 µM (inactive) | > 100 µM (inactive) | > 100 µM (inactive) | – | > 100 µM (inactive) | > 100 µM (inactive) | > 100 µM (inactive) | > 100 µM (inactive) | > 100 µM (inactive) | > 100 µM (inactive) | – | 62.2 µM (inactive) | > 100 µM (inactive) |
| COC(=O)c1ccc(Nc2nc3[nH]cnc3c(=O)[nH]2)cc1 | > 100 µM (inactive) | > 100 µM (inactive) | > 100 µM (inactive) | – | 32.9 µM (inactive) | 87.1 µM (inactive) | > 100 µM (inactive) | > 100 µM (inactive) | 47.5 µM (inactive) | – | 67.3 µM (inactive) | > 100 µM (inactive) | 89.3 µM (inactive) | > 100 µM (inactive) | > 100 µM (inactive) | > 100 µM (inactive) | – | > 100 µM (inactive) | > 100 µM (inactive) | 95.5 µM (inactive) |
| Nc1nc(-[n+]2ccc(-c3ccncc3)cc2)nc(Cl)c1Cl | > 100 µM (inactive) | 13.9 µM (inactive) | 36.2 µM (inactive) | 29.9 µM (inactive) | > 100 µM (inactive) | 18.9 µM (inactive) | > 100 µM (inactive) | – | 17.2 µM (inactive) | 16.5 µM (inactive) | 26.8 µM (inactive) | 47 µM (inactive) | > 100 µM (inactive) | 26.3 µM (inactive) | 35.4 µM (inactive) | > 100 µM (inactive) | 32.9 µM (inactive) | 23.8 µM (inactive) | – | 15 µM (inactive) |
| CC1=CCC(=O)[C@]2(C)C(CC(=O)O)[C@]3(C)C4=C(C)C(c5ccoc5)C[C@@H]4O[C@@H]3[C@H](O)[C@@H]12 (some centres undefined) | > 100 µM (inactive) | > 100 µM (inactive) | > 100 µM (inactive) | – | > 100 µM (inactive) | > 100 µM (inactive) | > 100 µM (inactive) | > 100 µM (inactive) | > 100 µM (inactive) | – | > 100 µM (inactive) | > 100 µM (inactive) | > 100 µM (inactive) | > 100 µM (inactive) | > 100 µM (inactive) | > 100 µM (inactive) | > 100 µM (inactive) | > 100 µM (inactive) | > 100 µM (inactive) | > 100 µM (inactive) |
| O=C1/C(=C\c2cccc(Oc3ccccc3)c2)SC(c2ccccc2)N1c1cccc(Cl)c1 (centres undefined) | > 100 µM (inactive) | – | > 100 µM (inactive) | > 100 µM (inactive) | > 100 µM (inactive) | > 100 µM (inactive) | > 100 µM (inactive) | – | > 100 µM (inactive) | 64.1 µM (inactive) | – | > 100 µM (inactive) | > 100 µM (inactive) | > 100 µM (inactive) | > 100 µM (inactive) | > 100 µM (inactive) | > 100 µM (inactive) | > 100 µM (inactive) | > 100 µM (inactive) | > 100 µM (inactive) |
| COc1ccc(C2CC(=O)Oc3ccccc3O2)cc1 (centres undefined) | > 100 µM (inactive) | 52.8 µM (inactive) | > 100 µM (inactive) | > 100 µM (inactive) | 98.2 µM (inactive) | > 100 µM (inactive) | > 100 µM (inactive) | 32.1 µM (inactive) | > 100 µM (inactive) | > 100 µM (inactive) | > 100 µM (inactive) | > 100 µM (inactive) | > 100 µM (inactive) | > 100 µM (inactive) | > 100 µM (inactive) | > 100 µM (inactive) | 88.5 µM (inactive) | – | 66.7 µM (inactive) | – |
| COc1ccc(OC)c(NCC(=O)Nn2cnc3ccc(S(=O)(=O)Nc4cc(OC)ccc4OC)cc3c2=O)c1 | > 100 µM (inactive) | 35.5 µM (inactive) | > 100 µM (inactive) | 44.3 µM (inactive) | 41.3 µM (inactive) | 31.2 µM (inactive) | 86.3 µM (inactive) | 40 µM (inactive) | – | – | > 100 µM (inactive) | > 100 µM (inactive) | > 100 µM (inactive) | > 100 µM (inactive) | > 100 µM (inactive) | > 100 µM (inactive) | 75.7 µM (inactive) | > 100 µM (inactive) | > 100 µM (inactive) | 41.1 µM (inactive) |
| CN(C)CC(O)CNC(=O)Nc1ccccc1 (centres undefined) | > 100 µM (inactive) | > 100 µM (inactive) | > 100 µM (inactive) | > 100 µM (inactive) | > 100 µM (inactive) | – | > 100 µM (inactive) | – | > 100 µM (inactive) | > 100 µM (inactive) | > 100 µM (inactive) | > 100 µM (inactive) | > 100 µM (inactive) | > 100 µM (inactive) | > 100 µM (inactive) | > 100 µM (inactive) | > 100 µM (inactive) | > 100 µM (inactive) | > 100 µM (inactive) | > 100 µM (inactive) |
| c1cc(-c2ccc(-c3nc4ccc(C5=NCCN5)cc4s3)s2)ccc1C1=NCCN1 | 1.23 µM (inactive) | 0.0962 µM (active) | 1.11 µM (active) | 0.82 µM (active) | 0.723 µM (active) | 0.0968 µM (active) | 0.286 µM (active) | 0.114 µM (active) | 0.295 µM (active) | 0.152 µM (active) | 0.296 µM (active) | 1.71 µM (inactive) | 0.711 µM (active) | 0.804 µM (active) | 0.222 µM (active) | 1.12 µM (inactive) | 1.02 µM (active) | 0.299 µM (active) | – | 0.262 µM (active) |
